Reference: patent publication US6448229B2, “Gamma secretase inhibitors” (Merck Sharp & Dohme Ltd., priority 2000, dated 2002)

Tested on: Notch signalling
Test: Xenopus developmental assay for Notch activity (tail bud formation)
Format: in vivo, Xenopus laevis
Settings: Xenopus embryos cultured with compound from stage 15 to stage 40
Procedure: The following assay was used to determine the effect of compounds on Notch signalling.
Xenopus embryos were cultured in 1/10 NAM [Beck & Slack, Development, 126, 1611-1620, 1999] supplemented with protease inhibitors ([…] stock in DMSO) from stage 15 [P. D. Nieuwkoop and J. Faber, Normal table of Xenopus laevis, Daudin 1967, Reprinted Garland 1994] (24 hours), to stage 40 (3 days). Control siblings were incubated in 1/10 NAM containing 0.05% DMSO. At 3 days they were fixed in batches of 20 and measured using a graduated eyepiece on a Wild dissecting microscope set to 25×. Each tadpole was measured from head to proctodaeum (head and trunk) and from proctodaeum to tail tip (tail). Tail buds were extirpated at stage 30 and cultured for 24 hours as described previously [Tucker & Slack, Development, 121, 249-262, 1995]. Somites were detected by staining with monoclonal antibody 12/101 [Kintner & Brockes, Nature, 308, 67-69, 1984], as described elsewhere [Tucker & Slack, 1995]. In situ hybridisation for Xhox3 has been previously described [Beck & Slack, Mech. Dev., 72, 41-52, 1998].

CC(NC(=O)Cc1cc(F)cc(F)c1)C(=O)NC(C(=O)NCC1CN(c2ccccc2)CCO1)c1ccccc1 (mixture of isomers) [Example 1, 2-[2-(3,5-Difluorophenyl)acetylamino]-N-{phenyl[(4-phenylmorpholin-2-ylmethyl)carbamoyl]methyl}propionamide]
inhibition of tail bud formation: did not significantly inhibit tail bud formation
